{"source": "paper PMC7568863", "about": "(Chemical biology & drug design, 2020)", "key": {"[1]": {"tested_on": "SKMEL28 melanoma cell line", "assay": "Cell apoptosis assay", "type": "cell-based", "settings": "IncuCyte Cytotox Green, Total Green Object Integrated Intensity; 30 h post-treatment; triplicates; preliminary assay"}, "Bfl-1": {"tested_on": "Bfl-1", "settings": "ref Barile et al., 2017; cited from earlier work"}}}
{"smiles": "CC1(C)CCC(CN2CCN(c3ccc(C(=O)NS(=O)(=O)c4ccc(NCC5CCOCC5)c([N+](=O)[O-])c4)c(Oc4cnc5[nH]ccc5c4)c3)CC2)=C(c2ccc(Cl)cc2)C1", "note": "[ABT199]", "values": [{"measurement": "Induction of apoptosis / cell death in SKMEL28 cells", "setting": "[1]", "result": "inactive at the concentrations tested"}, {"measurement": "Activity against Bfl-1", "setting": "Bfl-1", "result": "inactive against Bfl-1"}]}
